Results on 5 molecules are retold here after paper PMC11239830, “Synthetic macrolides overcoming MLSBK-resistant pathogens” (Cell Discovery, 2024).

The test system of experiment [1] is S. aureus. Briefly: MICs and MBCs against selected S. aureus isolates. The class given is cell-based, Staphylococcus aureus.
The subject of a further experiment is H. influenzae. The experiment in a line: MIC, broth microdilution. The class given is cell-based, Haemophilus influenzae. Here is the method: (§1) MICs were determined by the microdilution method according to the Clinical and Laboratory Standards Institute guidelines. […] Finally, the 96-well plates were incubated at 37 °C for 16–20 h to observe and record the results. […] The assay for MICs was replicated at least three times.

For a further experiment, the system named is S. pneumoniae. Briefly: MIC, broth microdilution. Type of experiment: cell-based, Streptococcus pneumoniae. How it is done:
as §1
On the technique in general: Dilution methods test growth across graded concentrations, often in twofold steps.

For a further experiment, the system named is S. pyogenes. Briefly: MIC, broth microdilution. Type of experiment: cell-based, Streptococcus pyogenes. How it is done: as §1
The test system of experiment [2] is S. aureus. Briefly: MIC, broth microdilution. The class given is cell-based, Staphylococcus aureus. Here is the method:
as §1

Setting [3] is: Staphylococcus aureus, MRSA, strain 1, MRSA, i-ermA.
The mark [4] stands for this setting: Staphylococcus aureus, MRSA, strain 4, MRSA, i-ermA.
The mark [5] stands for this setting: Staphylococcus aureus, MRSA, strain 5, MRSA, i-ermC.
The mark [6] stands for this setting: Staphylococcus aureus, MRSA, strain 6, MRSA, c-ermB.
Setting [7] is: Staphylococcus aureus, MRSA, strain 7, MRSA, c-ermB.
The mark [8] stands for this setting: Staphylococcus aureus, MRSA, strain 10, MRSA, c-ermB.
Where [9] appears, read: Staphylococcus aureus, MRSA, strain 11, MRSA, c-ermB.
The mark [10] stands for this setting: Haemophilus influenzae, ATCC49247, H. influenzae ATCC49247, Azi-S, read-out: MIC.
[11] abbreviates: Streptococcus pneumoniae, ATCC49619, S. pneumoniae ATCC49619, Ery-S, read-out: MIC.
[12] abbreviates: Streptococcus pneumoniae, S. pneumoniae 07P390, c-ermB, read-out: MIC.
Where [13] appears, read: Streptococcus pneumoniae, S. pneumoniae PU09, mef, read-out: MIC.
Where [14] appears, read: Streptococcus pyogenes, S. pyogenes 12-206, c-ermTR, read-out: MIC.
The mark [15] stands for this setting: Staphylococcus aureus, S. aureus 15B196, c-ermB, read-out: MIC.
The mark [16] stands for this setting: Staphylococcus aureus, S. aureus PU32, i-ermA, read-out: MIC.

≈ marks a conversion by molar mass, not a printed value. Read-outs that look alike come from different tables or passages of the source.

As usually defined, the MBC is the lowest tested concentration that kills the bacteria rather than only halting them. In the case of `CC[C@H]1OC(=O)[C@@](C)(F)C(=O)[C@H](C)[C@@H](O[C@@H]2O[C@H](C)C[C@H](N(C)C)[C@H]2O)[C@](C)(OC)C[C@@H](C)C(=O)[C@H](C)[C@H]2N(CCCCn3cc(-c4cccc(N)c4)nn3)C(=O)O[C@]12C` [solithromycin], the MBC/MIC is reported as greater than 8 with S. aureus [1] (S. aureus ATCC29213); greater than 8 in the experiment with S. aureus [1] (strain 1, MRSA, i-ermA); greater than 8 against S. aureus [1] (strain 2, MSSA, i-ermC); greater than 8 in the experiment on S. aureus [1] (strain 3, MSSA, i-ermC); greater than 8 against S. aureus [1] (strain 4, MRSA, i-ermA); 8 in the experiment on S. aureus [1] (strain 5, MRSA, i-ermC). For the same molecule, the MBC/MIC in the experiment on S. aureus [1] (strain 6, MRSA, c-ermB) was greater than 8; with S. aureus [1] (strain 7, MRSA, c-ermB), greater than 8; against S. aureus [1] (strain 8, MSSA, c-ermB) it was 8; with S. aureus [1] (strain 9, MSSA, c-ermB) it was greater than 8; against S. aureus [1] (strain 10, MRSA, c-ermB) it was greater than 8; with S. aureus [1] (strain 11, MRSA, c-ermB) it was greater than 8. Moreover, the MIC in the experiment with S. aureus [1] (Staphylococcus aureus, ATCC29213, S. aureus ATCC29213 (Table S10), read-out: MIC) came out at 0.06 µg/mL (≈ 0.071 µM); with S. aureus [1] (setting [3]), 0.06 µg/mL (≈ 0.071 µM); with S. aureus [1] (setting [4]), 0.06 µg/mL (≈ 0.071 µM); against S. aureus [1] (setting [5]), 0.06 µg/mL (≈ 0.071 µM); in the experiment with S. aureus [1] (setting [6]) it was 0.25 µg/mL (≈ 0.296 µM); with S. aureus [1] (setting [7]), 0.5 µg/mL (≈ 0.592 µM). Further, the MIC is 0.25 µg/mL (≈ 0.296 µM) in the experiment on S. aureus [1] (setting [8]); 0.25 µg/mL (≈ 0.296 µM) with S. aureus [1] (setting [9]); 0.06 µg/mL (≈ 0.071 µM) with S. aureus [1] (Staphylococcus aureus, MSSA, strain 2, MSSA, i-ermC, read-out: MIC); 0.06 µg/mL (≈ 0.071 µM) with S. aureus [1] (Staphylococcus aureus, MSSA, strain 3, MSSA, i-ermC, read-out: MIC); 16 µg/mL (≈ 18.9 µM) in the experiment with S. aureus [1] (Staphylococcus aureus, MSSA, strain 8, MSSA, c-ermB, read-out: MIC); 32 µg/mL (≈ 37.9 µM) with S. aureus [1] (Staphylococcus aureus, MSSA, strain 9, MSSA, c-ermB, read-out: MIC). The MIC in the experiment with H. influenzae (setting [10]) amounted to 2 µg/mL (≈ 2.37 µM); in the experiment on S. pneumoniae (setting [11]), 0.016 µg/mL (≈ 0.0189 µM); with S. pneumoniae (setting [12]) it was 0.03 µg/mL (≈ 0.0355 µM); in the experiment with S. pneumoniae (setting [13]), 0.5 µg/mL (≈ 0.592 µM); with S. pyogenes (Streptococcus pyogenes, S. pyogenes 01-968, i-ermTR (Table S5), read-out: MIC), 0.016 µg/mL (≈ 0.0189 µM); in the experiment on S. pyogenes (Streptococcus pyogenes, S. pyogenes 12-206, c-ermB (Table S5), read-out: MIC) it was 0.03 µg/mL (≈ 0.0355 µM). The MBC against S. aureus [1] (setting [3]) is greater than 0.5 µg/mL; with S. aureus [1] (setting [4]), greater than 0.5 µg/mL; against S. aureus [1] (setting [5]) it was 0.5 µg/mL (≈ 0.592 µM); with S. aureus [1] (setting [6]), greater than 2 µg/mL; with S. aureus [1] (setting [7]), greater than 4 µg/mL; against S. aureus [1] (setting [8]), greater than 2 µg/mL. The MBC was greater than 2 µg/mL in the experiment on S. aureus [1] (setting [9]); 128 µg/mL (≈ 151 µM) against S. aureus [1] (Staphylococcus aureus, MSSA, strain 8, MSSA, c-ermB); greater than 256 µg/mL against S. aureus [1] (Staphylococcus aureus, MSSA, strain 9, MSSA, c-ermB); greater than 0.5 µg/mL in the experiment on S. aureus [1] (Staphylococcus aureus, S. aureus ATCC29213, read-out: MBC); greater than 0.5 µg/mL in the experiment on S. aureus [1] (Staphylococcus aureus, strain 3, MSSA, i-ermC, read-out: MBC); greater than 0.5 µg/mL against S. aureus [1] (strain 2, MSSA, i-ermC). Besides, the “bactericidal or bacteriostatic by MBC/MIC” value in the experiment with S. aureus [1] (selected S. aureus isolates) is “bacteriostatic against all selected isolates”.
With `CC[C@H]1OC(=O)[C@H](C)[C@@H](OC(=O)NCCCCCC#Cc2ccc3c(=O)c(C(=O)O)cn(C4CC4)c3c2)[C@H](C)[C@@H](O[C@@H]2O[C@H](C)C[C@H](N(C)C)[C@H]2O)[C@](C)(O)C[C@@H](C)CN(C)[C@H](C)[C@H]2OC(=O)O[C@@]21C` [110c], the MIC against H. influenzae (H. influenzae ATCC49247, Azi-S) is 8 µg/mL (≈ 8.15 µM); in the experiment with S. pneumoniae (S. pneumoniae 07P390, c-ermB), 1 µg/mL (≈ 1.02 µM); against S. pneumoniae (S. pneumoniae ATCC49619, Ery-S), 0.016 µg/mL (≈ 0.0163 µM); against S. pneumoniae (S. pneumoniae PU09, mef) it was 0.06 µg/mL (≈ 0.0611 µM); against S. pyogenes (S. pyogenes 12-206, c-ermTR) it was 2 µg/mL (≈ 2.04 µM); against S. aureus [2] (S. aureus 15B196, c-ermB), 128 µg/mL (≈ 130 µM). The MIC against S. aureus [2] (S. aureus PU32, i-ermA) was 4 µg/mL (≈ 4.08 µM).
In the case of `CC[C@H]1OC(=O)[C@H](C)[C@@H](OC(=O)NCCCOCCC#Cc2ccc3c(c2)c(=O)c(C(=O)O)cn3C2CC2)[C@H](C)[C@@H](O[C@@H]2O[C@H](C)C[C@H](N(C)C)[C@H]2O)[C@](C)(O)C[C@@H](C)CN(C)[C@H](C)[C@H]2OC(=O)O[C@@]21C` [117a], the MIC was 32 µg/mL (≈ 32.1 µM) against H. influenzae (H. influenzae ATCC49247, Azi-S); 512 µg/mL (≈ 513 µM) in the experiment on S. pneumoniae (S. pneumoniae 07P390, c-ermB); 1 µg/mL (≈ 1 µM) with S. pneumoniae (S. pneumoniae ATCC49619, Ery-S); 2 µg/mL (≈ 2.01 µM) against S. pneumoniae (S. pneumoniae PU09, mef); 512 µg/mL (≈ 513 µM) with S. pyogenes (S. pyogenes 12-206, c-ermTR); 512 µg/mL (≈ 513 µM) against S. aureus [2] (S. aureus 15B196, c-ermB). Besides, the MIC with S. aureus [2] (S. aureus PU32, i-ermA) was 32 µg/mL (≈ 32.1 µM).
`CCC1OC(=O)C(C)C(OC(=O)NCCCCCCCc2ccc3c(=O)c(C(N)=O)cn(C4CC4)c3c2)C(C)C(OC2OC(C)CC(N(C)C)C2O)C(C)(OC)CC(C)C(=NOC)C(C)C2OC(=O)OC12C` (centres unmarked) [61d]: the MIC is greater than 256 µg/mL in the experiment on H. influenzae (setting [10]); 0.12 µg/mL (≈ 0.119 µM) in the experiment with S. pneumoniae (setting [11]); 16 µg/mL (≈ 15.8 µM) in the experiment on S. pneumoniae (setting [12]); 1 µg/mL (≈ 0.988 µM) with S. pneumoniae (setting [13]); 16 µg/mL (≈ 15.8 µM) with S. pyogenes (setting [14]); greater than 256 µg/mL with S. aureus [2] (setting [15]). In the experiment on S. aureus [2] (setting [16]), the MIC is 64 µg/mL (≈ 63.2 µM).
As to `CC[C@H]1OC(=O)[C@H](C)[C@@H](OC(=O)NCCCCCC#Cc2ccc3c(=O)c(C(=O)O)cn(C4CC4)c3c2)[C@H](C)[C@@H](O[C@@H]2O[C@H](C)C[C@H](N(C)C)[C@H]2O)[C@](C)(OC)C[C@@H](C)C(=O)[C@H](C)[C@H]2OC(=O)O[C@@]21C` [79c], the MIC in the experiment on H. influenzae (setting [10]) worked out at 16 µg/mL (≈ 16.3 µM); with S. pneumoniae (setting [11]), 0.016 µg/mL (≈ 0.0163 µM); in the experiment on S. pneumoniae (setting [12]) it was 0.12 µg/mL (≈ 0.122 µM); in the experiment with S. pneumoniae (setting [13]), 0.06 µg/mL (≈ 0.0612 µM); with S. pyogenes (setting [14]), 2 µg/mL (≈ 2.04 µM); in the experiment with S. aureus [2] (setting [15]), 64 µg/mL (≈ 65.3 µM). Further, in the experiment on S. aureus [2] (setting [16]), the MIC turned out to be 4 µg/mL (≈ 4.08 µM).
